Results published in ChEMBL document CHEMBL4414677, “Albanitriles A-G: Antiprotozoal Polyacetylene Nitriles from a Mycale Marine Sponge” (J Nat Prod, 2019).
Values after ≈ are worked out from the molar mass of the structure shown.

Assays:
[1] = Cytotoxicity against mouse NS1 cells assessed as cell growth inhibition measured after 96 hrs by resazurin assay; assay type: cell-based; details: read-out: MIC
[2] = Cytotoxicity against human NFF cells assessed as cell growth inhibition measured after 96 hrs by resazurin assay; assay type: cell-based; details: read-out: MIC
Candida albicans = assay: Antifungal activity against Candida albicans ATCC 10231 assessed as fungal growth inhibition measured after 48 hrs by bromocresol green dye based assay; assay type: functional
Tritrichomonas foetus = assay: Antiprotozoal activity against Tritrichomonas foetus KV1 assessed as protozoal growth inhibition measured after 72 hrs under anaerobic conditions; assay type: functional; details: KV1, 72 h
Giardia intestinalis = assay: Antiprotozoal activity against Giardia duodenalis 713 assessed as protozoal growth inhibition measured after 96 hrs under anaerobic conditions; assay type: functional; details: Giardia duodenalis, 713, 96 h
Bacillus spizizenii = assay: Antibacterial activity against Bacillus subtilis ATCC 6633 assessed as bacterial growth inhibition measured after 48 hrs by resazurin assay; assay type: functional; details: ATCC 6633, 48 h
Escherichia coli = assay: Antibacterial activity against Escherichia coli ATCC 25922 assessed as bacterial growth inhibition measured after 48 hrs by resazurin assay; assay type: functional; details: ATCC 25922, 48 h

## CSC[S@+]([O-])C[C@H](CO)NC(=O)/C=C/c1c(C)[nH]c(=O)[nH]c1=O
[1]
  MCC at 96 h: 0.55 µM
[2]
  MCC at 96 h: 1.7 µM

## NYSTATIN
Candida albicans
  MIC: 1.7 µM

## N#CCCCCC#CC#CC#CCCCCCCC#N
Candida albicans; ATCC 10231, 48 h
  MIC: > 400 µM
[1]
  MCC at 96 h: 50 µM
[2]
  MCC at 96 h: 100 µM
Tritrichomonas foetus
  MIC: 190 µM (≈ 50.2 µg/mL)
Giardia intestinalis
  MIC: 12 µM (≈ 3.17 µg/mL)
Bacillus spizizenii
  MIC: 400 µM (≈ 106 µg/mL)
Escherichia coli
  MIC: > 400 µM

## N#CCCCCC#CC#CC#CCCCCCC#N
Candida albicans; ATCC 10231, 48 h
  MIC: > 400 µM
[1]
  MCC at 96 h: 50 µM
[2]
  MCC at 96 h: 100 µM
Tritrichomonas foetus
  MIC: 200 µM (≈ 50.1 µg/mL)
Giardia intestinalis
  MIC: 25 µM (≈ 6.26 µg/mL)
Bacillus spizizenii
  MIC: > 400 µM
Escherichia coli
  MIC: > 400 µM

## CN(C)[C@@H]1C(O)=C(C(N)=O)C(=O)[C@@]2(O)C(O)=C3C(=O)c4c(O)cccc4[C@@](C)(O)[C@H]3C[C@@H]12 [TETRACYCLINE]
Bacillus spizizenii
  MIC: 0.9 µM (≈ 0.4 µg/mL)
Escherichia coli
  MIC: 14 µM (≈ 6.22 µg/mL)

## N#CCCCCC#CC#CC#CCCCCCC(O)C#N (stereo not given)
Candida albicans; ATCC 10231, 48 h
  MIC: > 360 µM
[1]
  MCC at 96 h: 180 µM
[2]
  MCC at 96 h: 90 µM
Tritrichomonas foetus
  MIC: > 360 µM
Giardia intestinalis
  MIC: 90 µM (≈ 25.2 µg/mL)
Bacillus spizizenii
  MIC: 90 µM (≈ 25.2 µg/mL)
Escherichia coli
  MIC: > 360 µM

## N#CCCCCC#CC#CC#CCCCCCC=O
Candida albicans; ATCC 10231, 48 h
  MIC: > 400 µM
[1]
  MCC at 96 h: 100 µM
[2]
  MCC at 96 h: 50 µM
Tritrichomonas foetus
  MIC: 200 µM (≈ 50.7 µg/mL)
Giardia intestinalis
  MIC: 400 µM (≈ 101 µg/mL)
Bacillus spizizenii
  MIC: 400 µM (≈ 101 µg/mL)
Escherichia coli
  MIC: > 400 µM

## Cc1ncc([N+](=O)[O-])n1CCO [METRONIDAZOLE]
Tritrichomonas foetus
  MIC: 1.2 µM (≈ 0.205 µg/mL)
Giardia intestinalis
  MIC: 2.9 µM (≈ 0.496 µg/mL)
